Measurements: PubChem BioAssay AID1919009 (Molecular Pharmacology Branch, DTP, NCI, 2023)

System: K24384-001-R-PDC complex spheroid growth
Assay: Anticancer human tumor K24384-001-R-PDC patient-derived pancreatic adenocarcinoma cell line growth inhibition [AhR]
Conditions: for IC50: curve of first compound; for viability, T/C: stronger effect = lower value
Source text: Multicellular complex tumor spheroid response to aryl hydrocarbon receptor antagonists in combination with a variety of drugs and investigational agents in selected tumor cell lines
The current study was undertaken to assess response to aryl hydrocarbon receptor antagonists in combination with standard-of-care drugs and investigational agents in solid tumor complex spheroid models. Complex spheroids include a stromal component modeled by human endothelial cells (HUVEC) and fibroblasts modeled by human mesenchymal stem cells (MSCs). The concentration ranges selected for each drug and investigational agent were based upon clinically achievable concentrations if the clinical Cmax of the agent was known.
Compounds. The drugs and investigational agents: BAY 2416964 (NSC825713), GNF351 (NSC835774), CH-223191 (NSC835775), CPI-455 (NSC825282), aza-TdCyd (NSC777586), decitabine (NSC127716), belinostat (NSC758774), entinostat (NSC756642), pevonedistat (NSC761192), tazemetostat (NSC777109), talazoparib (NSC765396), olaparib (NSC753686), selinexor (NSC780203), nedisertib (M3814, NSC802822), bortezomib (NSC756655), venetoclax (NSC766270), doxorubicin (NSC123127), elimusertib (BAY189344, NSC800525), ceralasertib (AZD6738, NSC777638), TAK-243 (NSC785004), alisertib (NSC759677), etoposide (NSC141540), topotecan (NSC609699), eribulin (NSC707389), gemcitabine (NSC613327), carboplatin (NSC241240), cisplatin (NSC119875), and SN-38 (NSC673596) were obtained from the National Cancer Institute (NCI) Developmental Therapeutics Program Chemical Repository (32). The FDA-approved anticancer drug set is available from the Developmental Therapeutics Program at https://dtp.cancer.gov/organization/dscb/obtaining/available plates.htm. […] The stock solutions were prepared in dimethyl sulfoxide (DMSO, Sigma-Aldrich, St. Louis, MO, cat. D2650), except for the platinum compounds which were prepared in saline (Quality Biological, Gaithersburg, MD, cat. 114-055-101), at 800-fold the tested concentration and stored at -70 degrees C prior to their use. All drugs and investigational agents were tested over a range starting from a high concentration at or near the clinical Cmax and decreasing in half-log increments. If the clinical Cmax for an agent had not been determined, the highest concentration tested was 10 microM (Table 1).
Cell Culture. All cells were maintained in an incubator at 37 degrees C and 5% CO2 with 95% humidity. The PDC lines were cultured according to standard operating procedures established by the NCI PDMR (https://pdmr.cancer.gov). Briefly, all PDCs were thawed and cultured in Matrigel-coated flasks prepared with a working solution of 1X Ham's F-12 nutrient mix, without supplementation (Invitrogen, Waltham, MA, cat. 11765054), 100 U/mL penicillin-streptomycin (Invitrogen, cat. 15140122), and 2.5% Matrigel (Corning Inc., Corning, NY, cat. 354248) for the first three passages. All PDCs were cultured in complete DMEM/F-12 media containing advanced DMEM/F-12 (Invitrogen, cat. 12634028), 4.9% defined fetal bovine serum, heat inactivated (HyClone Laboratories Inc., Logan, UT, cat. SH30070.03HI), 389 ng/mL hydrocortisone (Sigma-Aldrich, cat. H4001), 9.7 ng/mL human EGF recombinant protein (Invitrogen, cat. PHG0313), 23.4 microg/mL adenine (Sigma-Aldrich, cat. A2786), 97.3 U/mL penicillin-streptomycin (Invitrogen, cat. 15140122), 1.9 mM L-glutamine (Invitrogen, cat. 25030081), and 9.7 microM Y-27632 dihydrochloride (Tocris Bioscience, Bristol, United Kingdom, cat. 1254). The PDCs were cultured in complete DMEM/F12 media without 10 microM Y-27632 dihydrochloride for at least two passages prior to the screen. The established cell lines NCI-H1341 and […] were cultured in DMEM/F-12, HEPES (Invitrogen, cat. 11330032), 5% defined fetal bovine serum (HyClone Laboratories Inc., cat. SH30070.03), ITS premix universal culture supplement [insulin (5 microg/mL), transferrin (5 microg/mL), and selenious acid (5 ng/mL)] […]
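For viability, T/C in this document: percent of DMSO vehicle-treated spheroid viability set as 100%.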

IC50 (second compound 0.1 µM): 6.57 nM
IC50 (second compound 0.316 µM): 7.16 nM
IC50 (second compound 1 µM): 6.54 nM
IC50 (second compound 3.16 µM): 5.58 nM
IC50 (second compound 10 µM): 6.03 nM
Structure (SMILES): CC(C)CC(NC(=O)C(Cc1ccccc1)NC(=O)c1cnccn1)B(O)O (stereo not given) + CC(CO)NC(=O)c1cc(-c2ccc(Cl)cc2)nn(-c2cnn(C)c2)c1=O
viability, T/C (second compound 0.1 µM, first compound 0.000949 µM): 118%
viability, T/C (second compound 0.1 µM, first compound 0.003 µM): 110%
viability, T/C (second compound 0.1 µM, first compound 0.00949 µM): 22%
viability, T/C (second compound 0.1 µM, first compound 0.03 µM): 0.35%
viability, T/C (second compound 0.1 µM, first compound 0.0949 µM): 0.73%
viability, T/C (second compound 0.1 µM, first compound 0.3 µM): 0.34%
viability, T/C (second compound 0.316 µM, first compound 0.000949 µM): 133%
viability, T/C (second compound 0.316 µM, first compound 0.003 µM): 125%
viability, T/C (second compound 0.316 µM, first compound 0.00949 µM): 25.6%
viability, T/C (second compound 0.316 µM, first compound 0.03 µM): 0.68%
viability, T/C (second compound 0.316 µM, first compound 0.0949 µM): 0.25%
viability, T/C (second compound 0.316 µM, first compound 0.3 µM): 0.3%
viability, T/C (second compound 1 µM, first compound 0.000949 µM): 108%
viability, T/C (second compound 1 µM, first compound 0.003 µM): 108%
viability, T/C (second compound 1 µM, first compound 0.00949 µM): 22.2%
viability, T/C (second compound 1 µM, first compound 0.03 µM): 0.35%
viability, T/C (second compound 1 µM, first compound 0.0949 µM): 0.3%
viability, T/C (second compound 1 µM, first compound 0.3 µM): 0.35%
viability, T/C (second compound 3.16 µM, first compound 0.000949 µM): 83.6%
viability, T/C (second compound 3.16 µM, first compound 0.003 µM): 99.2%
viability, T/C (second compound 3.16 µM, first compound 0.00949 µM): 14.6%
viability, T/C (second compound 3.16 µM, first compound 0.03 µM): 0.34%
viability, T/C (second compound 3.16 µM, first compound 0.0949 µM): 0.32%
viability, T/C (second compound 3.16 µM, first compound 0.3 µM): 0.31%
viability, T/C (second compound 10 µM, first compound 0.000949 µM): 107%
viability, T/C (second compound 10 µM, first compound 0.003 µM): 110%
viability, T/C (second compound 10 µM, first compound 0.00949 µM): 12%
viability, T/C (second compound 10 µM, first compound 0.03 µM): 0.84%
viability, T/C (second compound 10 µM, first compound 0.0949 µM): 0.35%
viability, T/C (second compound 10 µM, first compound 0.3 µM): 0.9%
